Assay results from patent publication US6737383B1, “Herbicidal oxadiazolidines” (priority 1999, dated 2004).

Assays:
soybean = assay: Test B pre/postemergence soybean; format: in vivo, Glycine max
Procedure, shortened: (§1)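 Test chemicals in a non-phytotoxic solvent mixture with surfactant were sprayed preemergence onto planted seeds and postemergence onto plants 2 to 18 cm tall (1- to 4-leaf stage). After twelve to sixteen days in a greenhouse, injury was visually rated against untreated controls from 0 (no effect) to 10 (complete control).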

wheat = assay: Test B pre/postemergence wheat; format: in vivo, Triticum aestivum
Procedure, shortened: as §1

corn = assay: Test B pre/postemergence corn; format: in vivo, Zea mays
Procedure, shortened: as §1

rice = assay: Test B flood test rice; format: in vivo, Oryza sativa
Procedure, shortened: (§2)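 Each value is a visual injury score relative to controls, with 10 meaning complete control and 0 no effect. Evaluation took place twelve to sixteen days after the 2-leaf-stage plants were treated and kept in the greenhouse.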

blackgrass = assay: Test B pre/postemergence blackgrass; format: in vivo, Alopecurus myosuroides
Procedure, shortened: as §1

morningglory = assay: Test B pre/postemergence morningglory; format: in vivo, Ipomoea hederacea
Procedure, shortened: as §1

pigweed = assay: Test B pre/postemergence pigweed; format: in vivo, Amaranthus retroflexus
Procedure, shortened: as §1

crabgrass = assay: Test B pre/postemergence crabgrass; format: in vivo, Digitaria sanguinalis
Procedure, shortened: as §1

bedstraw = assay: Test B pre/postemergence bedstraw; format: in vivo, Galium aparine
Procedure, shortened: as §1

purple nutsedge = assay: Test B pre/postemergence purple nutsedge; format: in vivo, Cyperus rotundus; conditions: Postemergence; for Nutsedge plant response rating: 10 is complete control
Procedure, shortened: as §1

velvetleaf = assay: Test B pre/postemergence velvetleaf; format: in vivo, Abutilon theophrasti
Procedure, shortened: as §1

smallflower flatsedge = assay: Test B flood test smallflower flatsedge; format: in vivo, Cyperus difformis
Procedure, shortened: as §2

wild oat = assay: Test B pre/postemergence wild oat; format: in vivo, Avena fatua
Procedure, shortened: as §1

duck salad = assay: Test B flood test duck salad; format: in vivo, Heteranthera limosa
Procedure, shortened: as §2

giant foxtail = assay: Test B pre/postemergence giant foxtail; format: in vivo, Setaria faberii
Procedure, shortened: as §1

surinam grass = assay: Test B pre/postemergence surinam grass; format: in vivo, Brachiaria decumbens
Procedure, shortened: as §1

[1] = Postemergence, Rate 62 g/ha, scale of 0 to 10, 0 is no effect, 10 is complete control
[2] = Postemergence, Rate 500 g/ha, scale of 0 to 10 where 0 is no effect and 10 is complete control
[3] = Preemergence, Rate 62 g/ha, scale 0 to 10 (0 no effect, 10 complete control)
[4] = Preemergence, Rate 125 g/ha, scale 0 to 10, 0 is no effect, 10 is complete control
[5] = Preemergence, Rate 500 g/ha, scale of 0 to 10 where 0 is no effect and 10 is complete control
[6] = Rate 250 g/ha, Postemergence, scale of 0 to 10 where 0 is no effect and 10 is complete control
[7] = Postemergence, Rate 125 g/ha, scale 0 to 10, 0 is no effect, 10 is complete control
[8] = Rate 62 g/ha, flood test species, Pre-emergence, visual evaluation after twelve to sixteen days
[9] = Rate 125 g/ha, under heading Pre-emergence, flood test species, visual evaluation after twelve to sixteen days
[10] = Rate 250 g/ha, Pre-emergence (flood test species), scale 0 to 10, 0 is no effect, 10 is complete control
[11] = Rate 500 g/ha, Pre-emergence section of Table B, 0 to 10 scale (0 no effect, 10 complete control)

CC(C)N(C(=O)n1oc(=O)n(CCC2OCCCO2)c1=O)c1ccccc1 [Compound 561]
Soybean plant response rating (soybean; [1]): 2
Plant response rating, Soybean (soybean; [2]): 5
Soybean plant response rating (soybean; [3]): 0
Soybean plant response rating (soybean; [4]): 0
Soybean plant response rating (0 to 10 scale) (soybean; Preemergence, Rate 250 g/ha): 0
Soybean plant response rating (soybean; [5]): 2
Plant response rating, Soybean (soybean; [6]): 3
Wheat plant response rating (wheat; [1]): 0
Plant response rating, Wheat (wheat; [2]): 7
Wheat plant response rating (wheat; [3]): 0
Wheat plant response rating (wheat; [4]): 4
Wheat plant response rating (0 to 10 scale) (wheat; Preemergence, Rate 250 g/ha): 6
Wheat plant response rating (wheat; [5]): 9
Plant response rating, Wheat (wheat; [6]): 3
Corn plant response rating (corn; [1]): 0
Corn plant response rating (corn; [7]): 0
Plant response rating, Corn (corn; [2]): 3
Corn plant response rating (corn; [3]): 0
Corn plant response rating (corn; [4]): 0
Corn plant response rating (0 to 10 scale) (corn; Preemergence, Rate 250 g/ha): 2
Corn plant response rating (corn; [5]): 5
Plant response rating, Corn (corn; [6]): 0
Plant response rating, Rice (0 to 10 scale, 0 is no effect, 10 is complete control) (rice; [8]): 0
Rice plant response rating (0 to 10 scale, 0 is no effect, 10 is complete control) (rice; [9]): 0
Rice plant response rating (rice; [10]): 0
Rice plant response rating (rice; [11]): 0
Blackgrass plant response rating (blackgrass; [1]): 2
Blackgrass plant response rating (blackgrass; [7]): 5
Plant response rating, Blackgrass (blackgrass; [2]): 6
Blackgrass plant response rating (blackgrass; [3]): 5
Blackgrass plant response rating (blackgrass; [4]): 7
Blackgrass plant response rating (0 to 10 scale) (blackgrass; Preemergence, Rate 250 g/ha): 9
Blackgrass plant response rating (blackgrass; [5]): 9
Plant response rating, Blackgrass (blackgrass; [6]): 6
Morningglory plant response rating (morningglory; [1]): 1
Morningglory plant response rating (morningglory; [7]): 4
Plant response rating, Morningglory (morningglory; [2]): 9
Morningglory plant response rating (morningglory; [3]): 0
Morningglory plant response rating (morningglory; [4]): 0
Morningglory plant response rating (0 to 10 scale) (morningglory; Preemergence, Rate 250 g/ha): 2
Morningglory plant response rating (morningglory; [5]): 4
Plant response rating, Morningglory (morningglory; [6]): 5
Redroot pigweed plant response rating (pigweed; [1]): 0
Plant response rating, Redroot pigweed (pigweed; [2]): 7
Redroot pigweed plant response rating (pigweed; [3]): 3
Redroot pigweed plant response rating (pigweed; [4]): 5
Redroot pigweed plant response rating (0 to 10 scale) (pigweed; Preemergence, Rate 250 g/ha): 9
Redroot pigweed plant response rating (pigweed; [5]): 9
Plant response rating, Redroot pigweed (pigweed; [6]): 0
Crabgrass plant response rating (crabgrass; [1]): 2
Crabgrass plant response rating (crabgrass; [7]): 3
Plant response rating, Crabgrass (crabgrass; [2]): 9
Crabgrass plant response rating (crabgrass; [3]): 9
Crabgrass plant response rating (crabgrass; [4]): 9
Crabgrass plant response rating (0 to 10 scale) (crabgrass; Preemergence, Rate 250 g/ha): 9
Crabgrass plant response rating (crabgrass; [5]): 9
Plant response rating, Crabgrass (crabgrass; [6]): 4
Bedstraw plant response rating (bedstraw; [1]): 0
Plant response rating, Bedstraw (bedstraw; [2]): 7
Bedstraw plant response rating (bedstraw; [3]): 0
Bedstraw plant response rating (bedstraw; [4]): 0
Bedstraw plant response rating (0 to 10 scale) (bedstraw; Preemergence, Rate 250 g/ha): 2
Bedstraw plant response rating (bedstraw; [5]): 8
Nutsedge plant response rating (purple nutsedge; Rate 62 g/ha, scale of 0 to 10, 0 is no effect): 0
Nutsedge plant response rating (purple nutsedge; Rate 125 g/ha, scale 0 to 10, 0 is no effect): 2
Plant response rating, Nutsedge (purple nutsedge; Rate 500 g/ha, scale of 0 to 10 where 0 is no effect and 10 is complete control): 4
Velvetleaf plant response rating (velvetleaf; [1]): 0
Plant response rating, Velvetleaf (velvetleaf; [2]): 0
Velvetleaf plant response rating (velvetleaf; [3]): 0
Velvetleaf plant response rating (velvetleaf; [4]): 0
Velvetleaf plant response rating (0 to 10 scale) (velvetleaf; Preemergence, Rate 250 g/ha): 0
Velvetleaf plant response rating (velvetleaf; [5]): 2
Plant response rating, Velvetleaf (velvetleaf; [6]): 0
Plant response rating, S. Flatsedge (0 to 10 scale, 0 is no effect, 10 is complete control) (smallflower flatsedge; [8]): 0
S. Flatsedge plant response rating (0 to 10 scale, 0 is no effect, 10 is complete control) (smallflower flatsedge; [9]): 0
S. Flatsedge plant response rating (smallflower flatsedge; [10]): 0
S. Flatsedge plant response rating (smallflower flatsedge; [11]): 0
Wild oats plant response rating (wild oat; [1]): 0
Plant response rating, Wild oats (wild oat; [2]): 2
Wild oats plant response rating (wild oat; [3]): 0
Wild oats plant response rating (wild oat; [4]): 2
Wild oats plant response rating (0 to 10 scale) (wild oat; Preemergence, Rate 250 g/ha): 5
Wild oats plant response rating (wild oat; [5]): 9
Plant response rating, Wild oats (wild oat; [6]): 2
Plant response rating, Ducksalad (0 to 10 scale, 0 is no effect, 10 is complete control) (duck salad; [8]): 0
Ducksalad plant response rating (0 to 10 scale, 0 is no effect, 10 is complete control) (duck salad; [9]): 0
Ducksalad plant response rating (duck salad; [10]): 0
Ducksalad plant response rating (duck salad; [11]): 0
Giant foxtail plant response rating (giant foxtail; [1]): 2
Giant foxtail plant response rating (giant foxtail; [7]): 4
Plant response rating, Giant foxtail (giant foxtail; [2]): 8
Giant foxtail plant response rating (giant foxtail; [3]): 0
Giant foxtail plant response rating (giant foxtail; [4]): 6
Giant foxtail plant response rating (0 to 10 scale) (giant foxtail; Preemergence, Rate 250 g/ha): 6
Giant foxtail plant response rating (giant foxtail; [5]): 7
Plant response rating, Giant foxtail (giant foxtail; [6]): 7
B. signalgrass plant response rating (surinam grass; [1]): 0
B. signalgrass plant response rating (surinam grass; [7]): 0
Plant response rating, B. signalgrass (surinam grass; [2]): 8
B. signalgrass plant response rating (surinam grass; [3]): 4
B. signalgrass plant response rating (surinam grass; [4]): 4
B. signalgrass plant response rating (0 to 10 scale, 0 is no effect, 10 is complete control) (surinam grass; Preemergence, Rate 250 g/ha): 8
B. signalgrass plant response rating (surinam grass; [5]): 9
Plant response rating, B. signalgrass (surinam grass; [6]): 6
